Reference: patent publication US10212936B2, “Molecules having pesticidal utility, and intermediates, compositions, and processes, related thereto” (priority 2014, dated 2019)

How the values were obtained:
Assay type in all cases: in vivo
[1] = tested on: Beet Armyworm (Spodoptera exigua, LAPHEG); test: Bioassay on Beet Armyworm (BAW), 128-well diet tray assay; conditions: 168 h, 50 μg/cm^2 on artificial diet, second instar larvae, five to seven days, 25° C., read-out: BAW % Control (or Mortality) rating
Procedure, shortened: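 Second instar larvae, one to five per well, placed on artificial diet treated with 50 μg/cm^2 compound (in 90:10 acetone-water) and dried; eight wells per compound. Held at 25° C, 14:10 light-dark, five to seven days. Percent mortality recorded per well and averaged.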

[2] = tested on: Cabbage Looper (Trichoplusia ni, TRIPNI); test: Bioassay on Cabbage Looper (CL), 128-well diet tray assay; conditions: 168 h, 50 μg/cm^2 on artificial diet, second instar larvae, five to seven days, 25° C., read-out: CL % Control (or Mortality) rating
Procedure, shortened: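 Diet-tray test with one to five second-instar larvae per well on artificial diet treated with 50 μg/cm^2 compound (in 90:10 acetone-water), dried, eight wells per molecule. Held 25 °C, 14:10 light-dark for five to seven days; percent mortality averaged over the eight wells.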

[3] = tested on: Green Peach Aphid (Myzus persicae, MYZUPE); test: Bioassay on Green Peach Aphid (GPA), foliar spray on cabbage seedlings; conditions: 72 h, 200 ppm foliar spray on cabbage seedlings, three days, Abbott corrected % control, read-out: GPA % Control (or Mortality) rating
Method: Example B: Bioassays on Green Peach Aphid (Myzus persicae, MYZUPE) (“GPA”)
Certain molecules disclosed in this document were tested against GPA using procedures described in the following example. In the reporting of the results, the “GPA Rating Table” was used (See Table Section).
Cabbage seedlings grown in 3-inch pots, with 2-3 small (3-5 cm) true leaves, were used as test substrate. The seedlings were infested with 20-50 GPA (wingless adult and nymph stages) one day prior to chemical application. Four pots with individual seedlings were used for each treatment. Test molecules (2 mg) were dissolved in 2 mL of acetone/methanol (1:1) solvent, forming stock solutions of 1000 ppm test molecule. The stock solutions were diluted 5× with 0.025% Tween 20 in water to obtain the solution at 200 ppm test molecule. A hand-held aspirator-type sprayer was used for spraying a solution to both sides of […] leaves until runoff. Reference plants (solvent check) were sprayed with the diluent only containing 20% by volume of acetone/methanol (1:1) solvent. Treated plants were held in a holding room for three days at approximately 25° C. and ambient relative humidity (RH) prior to grading. Evaluation was conducted by counting the number of live aphids per plant under a microscope. Percent Control was measured by using Abbott's correction formula (W. S. Abbott, “A Method of Computing the Effectiveness of an Insecticide” J. Econ. Entomol. 18 (1925), pp. 265-267) as follows. Corrected % Control=100*(X−Y)/X • where • X=No. of live aphids on solvent check plants and • Y=No. of live aphids on treated plants
The results are indicated in the table entitled “Table ABC: Biological Results” (See Table Section).

[4] = tested on: Yellow Fever Mosquito (Aedes aegypti, AEDSAE); test: Bioassay on Yellow Fever Mosquito (YFM) larvae, 96-well plate; conditions: about 1 day-old larvae, 4000 ppm DMSO master plate diluted, graded after 3 days
Procedure, shortened: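 Compounds from 4000 ppm DMSO master stocks, diluted in 90:10 water:acetone, dispensed into wells and infested with about 1-day-old Aedes aegypti larvae in liver-powder water. Six replicate plates, covered and held at room temperature for 3 days, then each well scored for mortality.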

Row | Compound | mortality at 50 µg/cm2 [1] [%] | mortality at 50 µg/cm2 [2] [%] | mortality at 200 ppm [3] [%] | YFM % Control (or Mortality) rating [4]
1 | Cc1cc(Cl)ccc1-n1nccc1NC(=O)Nc1ccc(-c2ncn(-c3ccc(OC(F)(F)F)cc3)n2)cc1 [F3, 1-(1-(4-Chloro-2-methylphenyl)-1H-pyrazol-5-yl)-3-(4-(1-(4-(trifluoromethoxy)phenyl)-1H-1,2,4-triazol-3-yl)phenyl)urea] | 50 to 100 | 50 to 100 | 0 | A (80-100)
2 | O=C(Nc1ccc(-c2ncn(-c3ccc(OC(F)(F)F)cc3)n2)cc1)Nc1ccnn1-c1c(Cl)cccc1Cl [F4, 1-(1-(2,6-Dichlorophenyl)-1H-pyrazol-5-yl)-3-(4-(1-(4-(trifluoromethoxy)phenyl)-1H-1,2,4-triazol-3-yl)phenyl)urea] | 50 to 100 | 50 to 100 | 0 to 80 | A (80-100)
3 | Cc1ccc(F)cc1-n1nccc1NC(=O)Nc1ccc(-c2ncn(-c3ccc(OC(F)(F)F)cc3)n2)cc1 [F5, 1-(1-(5-Fluoro-2-methylphenyl)-1H-pyrazol-5-yl)-3-(4-(1-(4-(trifluoromethoxy)phenyl)-1H-1,2,4-triazol-3-yl)phenyl)urea] | 50 to 100 | 50 to 100 | 0 | A (80-100)
4 | CCc1ccccc1-n1nccc1NC(=O)Nc1ccc(-c2ncn(-c3ccc(OC(F)(F)F)cc3)n2)cc1 [F6, 1-(1-(2-Ethylphenyl)-1H-pyrazol-5-yl)-3-(4-(1-(4-(trifluoromethoxy)phenyl)-1H-1,2,4-triazol-3-yl)phenyl)urea] | 50 to 100 | 50 to 100 | 0 | A (80-100)
5 | Cc1ccc(C)c(-n2nccc2NC(=O)Nc2ccc(-c3ncn(-c4ccc(OC(F)(F)F)cc4)n3)cc2)c1 [F7, 1-(1-(2,5-Dimethylphenyl)-1H-pyrazol-5-yl)-3-(4-(1-(4-(trifluoromethoxy)phenyl)-1H-1,2,4-triazol-3-yl)phenyl)urea] | 50 to 100 | 50 to 100 | 0 to 80 | A (80-100)
6 | Cc1ccc(-n2nccc2NC(=O)Nc2ccc(-c3ncn(-c4ccc(OC(F)(F)F)cc4)n3)cc2)c(C)c1 [F9, 1-(1-(2,4-Dimethylphenyl)-1H-pyrazol-5-yl)-3-(4-(1-(4-(trifluoromethoxy)phenyl)-1H-1,2,4-triazol-3-yl)phenyl)urea] | 50 to 100 | 50 to 100 | 0 to 80 | A (80-100)
7 | Cc1cc(C)c(-n2nccc2NC(=O)Nc2ccc(-c3ncn(-c4ccc(OC(F)(F)F)cc4)n3)cc2)c(C)c1 [F11, 1-(1-Mesityl-1H-pyrazol-5-yl)-3-(4-(1-(4-(trifluoromethoxy)phenyl)-1H-1,2,4-triazol-3-yl)phenyl)urea] | 50 to 100 | 50 to 100 | 0 | A (80-100)
8 | O=C(Nc1ccc(-c2ncn(-c3ccc(OC(F)(F)F)cc3)n2)cc1)Nc1ccnn1-c1cc(Cl)ccc1Cl [F12, 1-(1-(2,5-Dichlorophenyl)-1H-pyrazol-5-yl)-3-(4-(1-(4-(trifluoromethoxy)phenyl)-1H-1,2,4-triazol-3-yl)phenyl)urea] | 50 to 100 | 50 to 100 | 0 to 80 | A (80-100)
9 | COc1ccccc1-n1nccc1NC(=O)Nc1ccc(-c2ncn(-c3ccc(OC(F)(F)F)cc3)n2)cc1 [F13, 1-(1-(2-Methoxyphenyl)-1H-pyrazol-5-yl)-3-(4-(1-(4-(trifluoromethoxy)phenyl)-1H-1,2,4-triazol-3-yl)phenyl)urea] | 50 to 100 | 50 to 100 | 0 | A (80-100)
